Assay [1] deals with IL-17A-induced G-CSF production in human normal keratinocyte (NHK). The assay is described as follows: NHK Assay: IL-17A-induced G-CSF production in human normal keratinocytes. It is filed as cell-based. As to conditions: 24 h, adult normal human keratinocytes, IL-17A 5 ng/mL, simple average if tested more than once. The protocol:
IL-17A acts directly on keratinocytes through binding to dimeric receptor IL-17RA/RC and drives the production of a number of inflammatory mediators known to be elevated in psoriasis lesional tissue. IL-17A small molecule inhibitors that block the IL-17A to interact with IL-17R would inhibit the IL-17A signaling in its targeted cells such as keratinocytes. The compound functional activity is evaluated for its impact on IL-17A-induced G-CSF production in human normal keratinocyte (NHK).
Adult normal human keratinocytes are cultured in keratinocyte growth medium (Lonza) in a flask till reaching ˜ 90% confluence, then cells are transferred to a 384-well plate at density of 3000-4000 cell/well. Recombinant human IL-17A (Gibco PHC9174) is pre-incubated with titrated compound or DMSO for 1 h at rt then added to the cell culture plate. The final concentration of IL-17A is 5 ng/mL and DMSO is 0.2%, in the culture containing 5% FBS. Cells are cultured/treated for 24 h at 37° C. Supernatants are collected and G-CSF production is measured through HTRF technology using Human G-CSF Kit (CisBio). G-CSF concentration was extrapolated from the standard curve and IC50 is determined using GraphPad Prism. Cell viability is also evaluated using CellTiter-Glo kit (Promega) and effect of compound on cell viability is compared to DMSO control.

The target in assay [2] is IL-17A(FLAG-Tagged): IL-17RA(His-Tagged) (Homo sapiens, UniProt Q16552, K93Q). The assay is described as follows: IL-17A(FLAG-Tagged): IL-17RA(His-Tagged) Binding Disruption Eu-HTRF Assay. As to conditions: IL-17A/IL-17RA binding disruption, simple average if tested more than once. The text has this: IL-17A(FLAG-Tagged): IL-17RA(His-Tagged) Binding Disruption Eu-HTRF Assay
UniProt Q16552, sequence (Q16552 with tags, fused parts or gaps K93Q): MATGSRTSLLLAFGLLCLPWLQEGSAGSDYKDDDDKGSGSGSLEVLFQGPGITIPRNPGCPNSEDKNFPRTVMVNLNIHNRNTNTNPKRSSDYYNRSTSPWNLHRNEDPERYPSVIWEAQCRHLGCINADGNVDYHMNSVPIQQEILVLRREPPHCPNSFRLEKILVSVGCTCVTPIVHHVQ
An antibody directed against the FLAG tag of IL-17A (SEQ ID NO:1) is labeled with the HTRF donor chromophore (Europium-cryptate). IL-17A is present as a dimer that is “locked into” this quaternary structure due to the formation of loop-spanning […] disulfide bridges. The construct of IL-17RA used in the assay excludes the […] portion of the receptor and is fused to a C-terminal 10×His tag (SEQ ID NO:2). An antibody directed against the His tag of the IL-17RA chimera is labeled with the HTRF acceptor chromophore (“D2”). The fluorescence-resonance energy transfer (FRET) depends on the vicinity of the donor chromophore to the acceptor, and interruption of the binding between the IL-17A and IL-17RA causes the reduction/loss of FRET. Therefore, this assay allows to evaluate the compound effect on the binding IL-17A and IL-17RA by monitoring the fluorescence intensity of donor vs acceptor. The assay is run as described below.
40 nl of 2-fold serial diluted compound solution for total 22 dilution points is added into each well of a 1536-well, white, low-volume, non-binding plate (Greiner #782904), then 2 μl of FLAG tagged IL-17A at 2× final concentration (2.5 nM) in solution of PBS+0.01% Triton-X100 is added to each well. The assay plate is briefly centrifuged then incubated for 1 h at rt. A mixed solution is prepared containing 2×5 nM 10HIS×IL-17RA, 2×2.5 nM Eu-anti-FLAG (CISBIO), 2×5 nM D2-anti-HIS (CISBIO) in PBS+0.01% Triton-X100+200 mM Potassium Fluoride (Sigma 60238) and 2 μl of mix is added to each well of the assay plate. The plate is briefly centrifuged then incubated for 2 h at rt. The HTRF intensities at the wavelength of donor (620 nm) and acceptor (665 nm) are measured using BMG Pherastar. The ratio between intensities at two wavelengths is calculated and plotted against the compound concentration and the data is fitted to a one-site competition model to yield IC50 of the compound.
For orientation: Time-resolved FRET reads energy transfer from a long-lived donor to a nearby acceptor.

On to `O=C(CCC(F)(F)F)N[C@@H](c1cnn2cc([C@@H](NC(=O)c3ccnn3C(CF)CF)C3CCC(F)(F)CC3)nc2c1)C1CC1` [Example 69, N—((S)-(7-((R)-Cyclopropyl(4,4,4-trifluorobutanamido)methyl)imidazo[1,2-b]pyridazin-2-yl)(4,4-difluorocyclohexyl)methyl)-1-(1,3-difluoropropan-2-yl)-1H-pyrazole-5-carboxamide], for which the IC50 was 55 nM in assay [1] (Homo sapiens, Keratinocyte) and 110 nM in assay [2].

Regarding `CCc1cccc(C(=O)N[C@H](c2cn3ncc([C@H](NC(=O)CCC(F)(F)F)C4CC4)cc3n2)C2CCC(F)(F)CC2)n1` [Example 228, N—((S)-(7-((R)-Cyclopropyl(4,4,4-trifluorobutanamido)methyl)imidazo[1,2-b]pyridazin-2-yl)(4,4-difluorocyclohexyl)methyl)-6-ethylpicolinamide], the 50% inhibitory concentration (IC50) in assay [1] (Homo sapiens, Keratinocyte) was above 20000 nM; in assay [2], 1000 nM.

As to `O=C(CCC(F)(F)F)N[C@@H](c1cnn2cc([C@@H](NC(=O)[C@@H]3C[C@H]3C(F)(F)F)C3CCC(F)(F)CC3)nc2c1)C1CC1` (relative stereo) [Example 150, (Trans-1R*, 2R*)—N—((S)-(7-((R)-Cyclopropyl(4,4,4-trifluorobutanamido)methyl)imidazo[1,2-b]pyridazin-2-yl)(4,4-difluorocyclohexyl)methyl)-2-(trifluoromethyl)cyclopropane-1-carboxamide], the IC50 in assay [1] (Homo sapiens, Keratinocyte) was above 20000 nM; in assay [2], 1300 nM.

On to `Cc1nonc1C(=O)N[C@H](c1cn2ncc(C(CC3CCC3)NC(=O)CC3CC(F)(F)C3)cc2n1)C1CCC(F)(F)CC1` (single isomer, unassigned) [Example 439, N—((S)-(7-((S*)-2-Cyclobutyl-1-(2-(3,3-difluorocyclobutyl)acetamido)ethyl)imidazo[1,2-b]pyridazin-2-yl)(4,4-difluorocyclohexyl)methyl)-4-methyl-1,2,5-oxadiazole-3-carboxamide], for which the IC50 turned out to be 150 nM in assay [1] and 99 nM in assay [2].

On to `Cc1c(C(=O)N[C@H](c2cn3ncc(C(NC(=O)CCC(F)(F)F)C4CC4)cc3n2)C2CCC(F)(F)CC2)cnn1CCC(F)(F)F` (single isomer, unassigned) [Example 53, N—((S)-(7-((S*)-Cyclopropyl(4,4,4-trifluorobutanamido)methyl)imidazo[1,2-b]pyridazin-2-yl)(4,4-difluorocyclohexyl)methyl)-5-methyl-1-(3,3,3-trifluoropropyl)-1H-pyrazole-4-carboxamide], for which the results for the IC50 in assay [1] and in assay [2] were above 20000 nM and 11000 nM, respectively.

Consider `Cc1noc(C(=O)N[C@H](c2cn3ncc([C@H](NC(=O)CCC(F)(F)F)C4CC4)cc3n2)C2CCC(F)(F)CC2)c1C` [Example 473, N—((S)-(7-((R)-Cyclopropyl(4,4,4-trifluorobutanamido)methyl)imidazo[1,2-b]pyridazin-2-yl)(4,4-difluorocyclohexyl)methyl)-3,4-dimethylisoxazole-5-carboxamide], for which the IC50 in assay [1] (Homo sapiens, Keratinocyte) was above 20000 nM; in assay [2] it was 8500 nM.

With `C[C@H](CC(=O)N[C@@H](c1cnn2cc([C@@H](NC(=O)[C@@H]3C[C@H]3C(F)(F)F)C3CCC(F)(F)CC3)nc2c1)C1CC1)C(F)(F)F` (relative stereo) [Example 241, (trans-1R*,2R*)—N—((S)-(7-((R)-Cyclopropyl((R*)-4,4,4-trifluoro-3-methylbutanamido)methyl)imidazo[1,2-b]pyridazin-2-yl)(4,4-difluorocyclohexyl)methyl)-2-(trifluoromethyl)cyclopropane-1-carboxamide], the IC50 in assay [1] (Homo sapiens, Keratinocyte) was above 20000 nM; in assay [2], 3400 nM.

For `Cc1nocc1C(=O)N[C@H](c1cn2ncc(C(NC(=O)CCC(F)(F)F)C(C)C)cc2n1)C1CCC(F)(F)CC1` (mixture of isomers) [Example 134, N—((S)-(4,4-Difluorocyclohexyl)(7-(2-methyl-1-(4,4,4-trifluorobutanamido)propyl)imidazo[1,2-b]pyridazin-2-yl)methyl)-3-methylisoxazole-4-carboxamide], the IC50 was 110 nM in assay [1] (Homo sapiens, Keratinocyte) and 180 nM in assay [2].

Consider `O=C(CCC(F)(F)F)N[C@@H](c1cnn2cc([C@@H](NC(=O)c3cnnn3CC3CCC3(F)F)C3CCC(F)(F)CC3)nc2c1)C1CC1` (stereo partly drawn) [Example 91, N—((S)-(7-((R)-Cyclopropyl(4,4,4-trifluorobutanamido)methyl)imidazo[1,2-b]pyridazin-2-yl)(4,4-difluorocyclohexyl)methyl)-1-((2,2-difluorocyclobutyl)methyl)-1H-1,2,3-triazole-5-carboxamide], for which the IC50 in assay [1] (Homo sapiens, Keratinocyte) turned out to be 120 nM; in assay [2], 92 nM.

For `CCOc1nonc1C(=O)N[C@H](c1cn2ncc([C@H](NC(=O)CC3CC(F)(F)C3)C3CC3)cc2n1)C1CCC(F)(F)CC1` [Example 391, N—((S)-(7-((R)-Cyclopropyl(2-(3,3-difluorocyclobutyl)acetamido)methyl)imidazo[1,2-b]pyridazin-2-yl)(4,4-difluorocyclohexyl)methyl)-4-ethoxy-1,2,5-oxadiazole-3-carboxamide], the IC50 in assay [1] (Homo sapiens, Keratinocyte) was 47 nM; in assay [2] it was 43 nM.

As to `CCc1oncc1C(=O)N[C@H](c1cn2ncc([C@H](NC(=O)CCC(F)(F)F)C3CC3)cc2n1)C1CCC(F)(F)CC1` [Example 88, N—((S)-(7-((R)-Cyclopropyl(4,4,4-trifluorobutanamido)methyl)imidazo[1,2-b]pyridazin-2-yl)(4,4-difluorocyclohexyl)methyl)-5-ethylisoxazole-4-carboxamide], the IC50 was determined as 110 nM in assay [1] (Homo sapiens, Keratinocyte) and 56 nM in assay [2].

As to `CC(C)n1nccc1C(=O)N[C@H](c1cn2ncc([C@H](NC(=O)C34CC(F)(C3)C4)C3CC3)cc2n1)C1CCC(F)(F)CC1` [Example 268, N—((S)-(7-((R)-Cyclopropyl(3-fluorobicyclo[1.1.1]pentane-1-carboxamido)methyl)imidazo[1,2-b]pyridazin-2-yl)(4,4-difluorocyclohexyl)methyl)-1-isopropyl-1H-pyrazole-5-carboxamide], the IC50 in assay [1] (Homo sapiens, Keratinocyte) is 3000 nM; in assay [2], 750 nM.

Take `Cc1nonc1C(=O)N[C@H](c1cn2ncc(C(NC(=O)CC3CC(F)(F)C3)C(C)C)cc2n1)C1CCC(F)(F)CC1` (single isomer, unassigned) [Example 513, N—((S)-(7-((S*)-1-(2-(3,3-Difluorocyclobutyl)acetamido)-2-methylpropyl)imidazo[1,2-b]pyridazin-2-yl)(4,4-difluorocyclohexyl)methyl)-4-methyl-1,2,5-oxadiazole-3-carboxamide]: the half-maximal inhibitory concentration (IC50) in assay [1] (Homo sapiens, Keratinocyte) worked out at 150 nM; in assay [2] it was 74 nM.

In the case of `Cc1nonc1C(=O)N[C@H](c1cn2ncc([C@H](NC(=O)C[C@H]3C[C@@H](F)C3)C3CC3)cc2n1)C1CCC(F)(F)CC1` (single isomer, unassigned) [Example 267], the IC50 in assay [1] (Homo sapiens, Keratinocyte) is 350 nM; in assay [2], 87 nM.

Turning to `Cc1ccncc1C(=O)N[C@H](c1cn2ncc([C@H](NC(=O)CCC(F)(F)F)C3CC3)cc2n1)C1CCC(F)(F)CC1` [Example 209, N—((S)-(7-((R)-Cyclopropyl(4,4,4-trifluorobutanamido)methyl)imidazo[1,2-b]pyridazin-2-yl)(4,4-difluorocyclohexyl)methyl)-4-methylnicotinamide], the half-inhibitory concentration (IC50) in assay [1] (Homo sapiens, Keratinocyte) is above 20000 nM; in assay [2], 1400 nM.

Take `CC(C)n1nccc1C(=O)N[C@H](c1cn2ncc([C@@H](NC(=O)C[C@@H]3CC3(F)F)C3CC3)cc2n1)C1CCC(F)(F)CC1` (single isomer, unassigned) [Example 139]: the IC50 in assay [1] (Homo sapiens, Keratinocyte) is 690 nM; in assay [2] it was 730 nM.

The IC50 is the concentration needed to halve the response being measured.
